In US12344623B2, “Thiazolopyridine derivatives as adenosine receptor antagonists” (Merck Patent GmbH, priority 2019, dated 2025):

Key:
Assay type in all cases: cell-based
human A3 receptor = molecular target: T1, human A3 receptor (Homo sapiens, UniProt P0DMS8); experiment: Functional A3 receptor activity, recombinant CHO cells, cAMP (HTRF), forskolin, agonist IB-MECA; details: recombinant CHO cells, forskolin, agonist IB-MECA; read-out: Functional A3 receptor activity, CHO, cAMP, IC50
T1 construct: expressed in transfected cells; host or cells: CHO
T1 sequence (P0DMS8 1-318): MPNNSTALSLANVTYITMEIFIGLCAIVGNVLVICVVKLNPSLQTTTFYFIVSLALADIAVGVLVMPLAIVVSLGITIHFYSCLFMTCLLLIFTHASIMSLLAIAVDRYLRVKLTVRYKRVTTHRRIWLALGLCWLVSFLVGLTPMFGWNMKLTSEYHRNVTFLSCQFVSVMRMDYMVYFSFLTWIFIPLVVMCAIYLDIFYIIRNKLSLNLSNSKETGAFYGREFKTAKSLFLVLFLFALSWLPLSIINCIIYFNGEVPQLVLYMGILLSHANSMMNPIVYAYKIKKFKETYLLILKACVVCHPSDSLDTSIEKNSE
Description: (§1) The functional activities of human A2A, A2B, A1 and A3 receptors were determined by quantification of cAMP, being the second messenger for adenosine receptors.
(§2) For human A1 and A3 receptors, recombinant CHO cells, expressing either A1 or A3-receptor, were used. As both receptors couple to Gi proteins, the assay protocol was adapted:
(§3) Cells were seeded into 384-well plates, forskolin, test compounds and agonists (CPA for A1- and IB-MECA for A3-receptor) were added. After 30 min incubation, HTRF reagents (cAMP dynamic 2, Cis Bio) were added and the cellular cAMP levels were determined using the ENVISION (Perkin Elmer) plate reader. Obtained raw data were normalized against the inhibitor control and the neural control (DMSO) and the normalized data were fitted using GeneData software.

human A2A receptor = human A2A receptor (Homo sapiens, UniProt P29274); experiment: Functional A2A receptor activity, recombinant HEK293 cells, cAMP (HTRF), agonist NECA; set-up: expressed in transfected cells; host or cells: HEK293; details: read-out: Functional A2A receptor activity, HEK293, cAMP, IC50
Description: as §1, §3

human A1 receptor = molecular target: T2, human A1 receptor (Homo sapiens, UniProt P30542); experiment: Functional A1 receptor activity, recombinant CHO cells, cAMP (HTRF), forskolin, agonist CPA; details: recombinant CHO cells, forskolin, agonist CPA; read-out: Functional A1 receptor activity, CHO, cAMP, IC50
T2 construct: expressed in transfected cells; host or cells: CHO
T2 sequence (P30542 1-326): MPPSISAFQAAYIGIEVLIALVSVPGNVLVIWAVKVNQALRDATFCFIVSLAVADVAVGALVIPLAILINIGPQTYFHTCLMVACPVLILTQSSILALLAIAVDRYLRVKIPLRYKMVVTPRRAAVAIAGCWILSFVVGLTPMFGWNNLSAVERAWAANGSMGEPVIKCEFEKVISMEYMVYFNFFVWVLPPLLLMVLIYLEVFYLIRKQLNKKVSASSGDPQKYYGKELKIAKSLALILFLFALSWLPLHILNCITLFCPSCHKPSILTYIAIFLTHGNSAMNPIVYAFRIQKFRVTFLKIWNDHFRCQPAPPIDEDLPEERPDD
Description: as §1, §2, §3

human A2B receptor = molecular target: T3, human A2B receptor (Homo sapiens, UniProt P29275); experiment: Functional A2B receptor activity, recombinant HEK293 cells, cAMP (HTRF), agonist NECA; details: read-out: Functional A2B receptor activity, HEK293, cAMP, IC50
T3 construct: expressed in transfected cells; host or cells: HEK293
T3 sequence (P29275 1-332): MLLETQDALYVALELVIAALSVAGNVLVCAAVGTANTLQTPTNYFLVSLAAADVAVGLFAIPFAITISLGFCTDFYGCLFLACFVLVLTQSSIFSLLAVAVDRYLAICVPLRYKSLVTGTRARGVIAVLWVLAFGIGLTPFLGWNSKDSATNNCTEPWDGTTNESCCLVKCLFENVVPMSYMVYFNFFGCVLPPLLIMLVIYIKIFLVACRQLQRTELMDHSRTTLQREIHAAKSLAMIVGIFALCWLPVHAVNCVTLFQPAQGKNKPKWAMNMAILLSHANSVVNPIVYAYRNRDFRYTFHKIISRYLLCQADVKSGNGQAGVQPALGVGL
Description: as §1, §3

Sequence of human A2A receptor (P29274 whole entry): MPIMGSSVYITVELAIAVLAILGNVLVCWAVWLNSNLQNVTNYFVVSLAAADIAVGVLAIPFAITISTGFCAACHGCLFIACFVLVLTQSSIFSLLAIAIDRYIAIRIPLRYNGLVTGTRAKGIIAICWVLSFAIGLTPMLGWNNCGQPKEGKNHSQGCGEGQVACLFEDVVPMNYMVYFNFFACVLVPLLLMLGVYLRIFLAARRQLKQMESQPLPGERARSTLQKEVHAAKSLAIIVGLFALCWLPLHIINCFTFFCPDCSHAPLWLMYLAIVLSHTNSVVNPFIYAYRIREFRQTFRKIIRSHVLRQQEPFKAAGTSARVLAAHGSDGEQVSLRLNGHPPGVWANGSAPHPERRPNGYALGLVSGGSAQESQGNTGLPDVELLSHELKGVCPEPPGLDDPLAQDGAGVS

Structure (SMILES) | IC50 (human A3 receptor) [nM] | IC50 (human A2A receptor) [nM] | IC50 (human A1 receptor) [nM] | IC50 (human A2B receptor) [nM]
COc1nc(F)c(C2CCOCC2)c2sc(NC(=O)C3CC3)nc12 [Compound 28, Cyclopropanecarboxylic acid [6-fluoro-4-methoxy-7-(tetrahydro-pyran-4-yl)-thiazolo[4,5-c]pyridin-2-yl]-amide] | < 1000 | < 10 | < 1000 | < 100
COc1nc(F)c(-c2ccccc2)c2sc(NC(=O)c3c[nH]cn3)nc12 [Compound 32, 1H-Imidazole-4-carboxylic acid (6-fluoro-4-methoxy-7-phenyl-thiazolo[4,5-c]pyridin-2-yl)-amide] | > 1000 | < 10 | < 100 | < 10
COc1nc(F)c(C2CCOCC2)c2sc(NC(=O)N3CCC4(CCOC4)C3)nc12 (centres unmarked) [Compound 33, N-[6-fluoro-4-methoxy-7-(oxan-4-yl)-[1,3]thiazolo[4,5-c]pyridin-2-yl]-2-oxa-7-azaspiro[4.4]nonane-7-carboxamide] | > 1000 | < 10 | > 1000 | < 100
COc1nc(F)c(C2CCOCC2)c2sc(NC(=O)N3CC[C@]4(CCCOC4)C3)nc12 [Compound 34, (R)-7-Oxa-2-aza-spiro[4.5]decane-2-carboxylic acid [6-fluoro-4-methoxy-7-(tetrahydro-pyran-4-yl)-thiazolo[4,5-c]pyridin-2-yl]-amide] | > 1000 | < 10 | > 1000 | < 100
COc1ncc(C2=CC(=O)CC2)c2sc(NC(=O)N3CCC4(CCOCC4)C3)nc12 [Compound 40, 8-Oxa-2-aza-spiro[4.5]decane-2-carboxylic acid [4-methoxy-7-(3-oxo-cyclopent-1-enyl)-thiazolo[4,5-c]pyridin-2-yl]-amide] | > 1000 | < 100 | > 1000 | < 100
COc1ncc(C2=CCOC2)c2sc(NC(=O)c3c[nH]cn3)nc12 [Compound 43, N-[7-(2,5-dihydrofuran-3-yl)-4-methoxy-[1,3]thiazolo[4,5-c]pyridin-2-yl]-1H-imidazole-4-carboxamide] | > 1000 | < 10 | < 1000 | < 100
COc1ncc(C2=CCOC2)c2sc(NC(=O)N3CCC4(CCOCC4)C3)nc12 [Compound 44, N-[7-(2,5-dihydrofuran-3-yl)-4-methoxy-[1,3]thiazolo[4,5-c]pyridin-2-yl]-8-oxa-2-azaspiro[4.5]decane-2-carboxamide] | > 1000 | < 100 | > 1000 | < 100
COc1ncc(C2=CCOC2)c2sc(NC(=O)N3CCC4(CCCOC4)C3)nc12 (centres unmarked) [Compound 45, N-[7-(2,5-dihydrofuran-3-yl)-4-methoxy-[1,3]thiazolo[4,5-c]pyridin-2-yl]-7-oxa-2-azaspiro[4.5]decane-2-carboxamide] | > 1000 | < 100 | > 1000 | < 100
COc1ncc(-c2ccccc2)c2sc(NC(=O)c3c[nH]cn3)nc12 [Compound 60, 1H-Imidazole-4-carboxylic acid (4-methoxy-7-phenyl-thiazolo[4,5-c]pyridin-2-yl)-amide] | < 1000 | < 10 | < 1000 | < 10
COc1ncc(C2CCCCC2)c2sc(NC(=O)N3CCC4(CCOCC4)C3)nc12 [Compound 62, 8-Oxa-2-aza-spiro[4.5]decane-2-carboxylic acid (7-cyclohexyl-4-methoxy-thiazolo[4,5-c]pyridin-2-yl)-amide] | > 1000 | < 10 | > 1000 | < 100
COc1ncc(C2=CCSCC2)c2sc(NC(=O)N3CCC4(CCOCC4)C3)nc12 [Compound 64, 8-Oxa-2-aza-spiro[4.5]decane-2-carboxylic acid [7-(3,6-dihydro-2H-thiopyran-4-yl)-4-methoxy-thiazolo[4,5-c]pyridin-2-yl]-amide] | > 1000 | < 10 | < 1000 | < 10
COc1ncc(-c2csc(C)n2)c2sc(NC(=O)N3CCC4(CCOCC4)C3)nc12 [Compound 67, 8-Oxa-2-aza-spiro[4.5]decane-2-carboxylic acid [4-methoxy-7-(2-methyl-thiazol-4-yl)-thiazolo[4,5-c]pyridin-2-yl]-amide] | > 1000 | < 10 | < 1000 | < 100
COc1ncc(C2=CCC(OC)CC2)c2sc(NC(=O)N3CC[C@]4(CCCOC4)C3)nc12 (stereo partly drawn) [Compound 70, (5R)-N-[4-methoxy-7-(4-methoxycyclohex-1-en-1-yl)-[1,3]thiazolo[4,5-c]pyridin-2-yl]-7-oxa-2-azaspiro[4.5]decane-2-carboxamide] | > 1000 | < 10 | > 1000 | < 1000
COc1ncc(C2COCCO2)c2sc(NC(=O)N3CCC4(CCOCC4)C3)nc12 (centres unmarked) [Compound 73, 8-Oxa-2-aza-spiro[4.5]decane-2-carboxylic acid (7-[1,4]dioxan-2-yl-4-methoxy-thiazolo[4,5-c]pyridin-2-yl)-amide] | > 1000 | < 10 | > 1000 | < 100
COc1ncc(-c2cnn(Cc3ccncc3)c2)c2sc(NC(=O)N3CCC4(CCOCC4)C3)nc12 [Compound 75, 8-Oxa-2-aza-spiro[4.5]decane-2-carboxylic acid [4-methoxy-7-(1-pyridin-4-ylmethyl-1H-pyrazol-4-yl)-thiazolo[4,5-c]pyridin-2-yl]-amide] | > 1000 | < 10 | > 1000 | < 100
COc1ncc(-c2cnn(Cc3ccccc3)c2)c2sc(NC(=O)N3CCC4(CCOCC4)C3)nc12 [Compound 76, 8-Oxa-2-aza-spiro[4.5]decane-2-carboxylic acid [7-(1-benzyl-1H-pyrazol-4-yl)-4-methoxy-thiazolo[4,5-c]pyridin-2-yl]-amide] | > 1000 | < 10 | < 100 | < 10
COc1ncc(C2=CCC(OC)CC2)c2sc(NC(=O)N3CC[C@@]4(CCCOC4)C3)nc12 (stereo partly drawn) [Compound 77, (5S)-N-[4-methoxy-7-(4-methoxycyclohex-1-en-1-yl)-[1,3]thiazolo[4,5-c]pyridin-2-yl]-7-oxa-2-azaspiro[4.5]decane-2-carboxamide] | > 1000 | < 10 | > 1000 | < 1000
COc1ncc(-c2ccc(=O)[nH]c2)c2sc(NC(=O)N3CCC4(CCOCC4)C3)nc12 [Compound 78, 8-Oxa-2-aza-spiro[4.5]decane-2-carboxylic acid [4-methoxy-7-(6-oxo-1,6-dihydro-pyridin-3-yl)-thiazolo[4,5-c]pyridin-2-yl]-amide] | > 1000 | < 10 | > 1000 | < 1000
COc1ncc(-c2cnn(C(F)F)c2)c2sc(NC(=O)N3CCC4(CCOCC4)C3)nc12 [Compound 79, 8-Oxa-2-aza-spiro[4.5]decane-2-carboxylic acid [7-(1-difluoromethyl-1H-pyrazol-4-yl)-4-methoxy-thiazolo[4,5-c]pyridin-2-yl]-amide] | > 1000 | < 10 | < 1000 | < 100
O=C(Nc1nc2c(OC(F)F)ncc(-c3ccccc3)c2s1)N1CCC2(CCOCC2)C1 [Compound 80, 8-Oxa-2-aza-spiro[4.5]decane-2-carboxylic acid (4-difluoromethoxy-7-phenyl-thiazolo[4,5-c]pyridin-2-yl)-amide] | > 1000 | < 10 | > 1000 | < 100
